Test systems include ACHN renal; HCC-2998 colon; IGROV1 ovarian; M14 melanoma; NCI-H226 lung; NCI-H23 lung; RPMI-8226 leukemia; SF-268 CNS; SR leukemia; UO-31 renal.
Holding throughout (test): DTP human tumour cell line panel, 48 h

Each structure is given as a SMILES string.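 All cell lines were grown in 96-well plates and treated with compound for 48 hours. GI50: concentration for 50% inhibition of growth. TGI is the concentration that stops growth completely.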

Consider `O=c1[nH]c2[nH]c(=S)[nH]c(=S)c2[nH]1`, for which the TGI in the test with ACHN renal, in the test with HCC-2998 colon, with IGROV1 ovarian, with M14 melanoma, in the test with NCI-H226 lung and in the test on NCI-H23 lung was > 100 µM in each case. Moreover, the TGI with RPMI-8226 leukemia, with SF-268 CNS, in the test with SR leukemia and in the test with UO-31 renal was > 100 µM each time.

For `COc1ccc2nc3cc(Cl)ccc3c(NC(C)CCCN(CCCl)CCCl)c2c1` (stereo unspecified), the TGI with ACHN renal came out at 3.17 µM; in the test on HCC-2998 colon, 9.61 µM; with IGROV1 ovarian, 7.11 µM; in the test with M14 melanoma, 2.78 µM; in the test with NCI-H226 lung it was 3.44 µM; in the test on NCI-H23 lung, 2.89 µM. Further, the TGI came out at 2.93 µM with RPMI-8226 leukemia, 4.28 µM in the test with SF-268 CNS, 0.502 µM with SR leukemia and 11 µM with UO-31 renal.

With `O=C1C(Cl)N(c2ccccc2Cl)C1c1c[nH]c2ccccc12` (stereo unspecified), the TGI with IGROV1 ovarian, with M14 melanoma, in the test with NCI-H23 lung, in the test on RPMI-8226 leukemia, in the test on SF-268 CNS and with SR leukemia was > 100 µM each time. Moreover, the TGI with UO-31 renal is > 100 µM.

As to `CCN(CC)CCNc1ccc2ncn3c4ccc(O)cc4c(=O)c1c23`, the TGI is 2.89 µM in the test with ACHN renal; 18.1 µM in the test with HCC-2998 colon; 14.3 µM in the test with IGROV1 ovarian; 9.05 µM with M14 melanoma; 1.33 µM in the test with NCI-H226 lung; 13.8 µM in the test on NCI-H23 lung. The TGI in the test on RPMI-8226 leukemia is 11.1 µM; in the test on SF-268 CNS it was 13.6 µM; in the test with SR leukemia, 2.27 µM; in the test with UO-31 renal, 6.94 µM.

Turning to `O=C(CSCC(=O)N/N=C/c1cccc(O)c1)N/N=C/c1cccc(O)c1`, the TGI in the test with ACHN renal, with HCC-2998 colon, with IGROV1 ovarian, in the test with M14 melanoma, in the test on NCI-H226 lung and in the test with NCI-H23 lung was > 100 µM throughout. The TGI in the test on RPMI-8226 leukemia, in the test with SF-268 CNS, in the test with SR leukemia and with UO-31 renal was > 100 µM each time.

Take `O=C1c2ccccc2C(=O)c2[nH]cnc21`: the TGI with ACHN renal was > 100 µM; in the test on HCC-2998 colon it was > 100 µM; in the test with M14 melanoma, > 100 µM; with NCI-H226 lung, 93.3 µM; in the test on NCI-H23 lung it was > 100 µM; in the test on SF-268 CNS, > 100 µM. Moreover, the TGI in the test on SR leukemia and with UO-31 renal was > 100 µM each time.

As to `O=C1c2cc(O)c(O)cc2O[C@H](c2ccc(O)c(O)c2)[C@H]1O`, the TGI in the test with ACHN renal, with HCC-2998 colon, in the test on IGROV1 ovarian, in the test with M14 melanoma, in the test on NCI-H226 lung and in the test on NCI-H23 lung was > 100 µM each time. In addition, the TGI in the test on RPMI-8226 leukemia, with SF-268 CNS, in the test with SR leukemia and in the test on UO-31 renal was > 100 µM each time.

As to `O=C1c2cc3c(cc2-c2c1c1ccc(Cl)cc1c(=O)n2C[C@H](O)CO)OCO3`, the 50% growth inhibitory concentration (GI50) in the test with ACHN renal was 19.9 nM; in the test on HCC-2998 colon, 122 nM; with IGROV1 ovarian, 135 nM; in the test on M14 melanoma, 25 nM; in the test with NCI-H226 lung, 29.6 nM; in the test with NCI-H23 lung, 36.6 nM. The GI50 in the test with RPMI-8226 leukemia was 42.9 nM; in the test with SF-268 CNS, 18.5 nM; in the test with SR leukemia it was < 10 nM; with UO-31 renal, 34.8 nM. Besides, the TGI with ACHN renal was 0.111 µM; in the test on HCC-2998 colon it was 0.701 µM; with IGROV1 ovarian, > 100 µM; with M14 melanoma it was 0.244 µM; in the test with NCI-H226 lung, 0.165 µM; in the test on NCI-H23 lung it was 0.714 µM. For the same molecule, the concentration for total growth inhibition (TGI) was 0.54 µM with RPMI-8226 leukemia, 1.04 µM with SF-268 CNS, 12.7 µM with SR leukemia and 0.19 µM in the test with UO-31 renal.

Consider `Oc1ccc(C(=C(Br)c2ccccc2)c2ccc(O)cc2)cc1`, for which the TGI with ACHN renal was found to be 21.7 µM; in the test on HCC-2998 colon, 21.2 µM; with IGROV1 ovarian, 19.9 µM; in the test with M14 melanoma it was 15.3 µM; with NCI-H226 lung, 33 µM; in the test on NCI-H23 lung, 23.7 µM. Moreover, the TGI in the test with RPMI-8226 leukemia is 96.1 µM; with SF-268 CNS it was 16.5 µM; in the test on UO-31 renal, 19.7 µM.

Turning to `C=CCNC(=O)C(C)C1CCC2(C)C=CC(=O)C(C)=C2C1O` (stereo unspecified), the TGI in the test on HCC-2998 colon, in the test with IGROV1 ovarian, with NCI-H226 lung, in the test on NCI-H23 lung, in the test with RPMI-8226 leukemia and in the test on SF-268 CNS was > 100 µM each time. The TGI in the test on UO-31 renal is > 100 µM.

These data come from PubChem BioAssay (NCI).
